Measured values: ChEMBL document CHEMBL1122114

What was measured:
[1] = molecular target: Dihydrofolate reductase (Lactobacillus casei) (UniProt P00381); conditions: Lacticaseibacillus casei
Description: Tested for 50% reversible inhibition of Lactobacillus casei dihydrofolate reductase (spectrophotometric assay).

[2] = molecular target: Dihydrofolate reductase (Lactobacillus casei) (UniProt P00381); conditions: Lacticaseibacillus casei; remark: listed apart in the source
Description: Concentration of inhibitor required to decrease binding of [3H]MTX radioligand to Lactobacillus casei dihydrofolate reductase by 50%.

[3] = molecular target: T1, Dihydrofolate reductase (Mus musculus) (UniProt P00375); conditions: L1210
T1 sequence (whole entry): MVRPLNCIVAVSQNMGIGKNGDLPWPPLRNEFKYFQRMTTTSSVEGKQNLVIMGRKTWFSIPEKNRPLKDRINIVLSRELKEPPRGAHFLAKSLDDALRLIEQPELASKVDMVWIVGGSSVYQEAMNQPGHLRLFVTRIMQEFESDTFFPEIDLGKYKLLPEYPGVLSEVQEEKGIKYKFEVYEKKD
Description: Concentration of inhibitor to decrease binding of [3H]MTX radioligand to Dihydrofolate reductase from L1210 cells by 50%.

Chain of Dihydrofolate reductase (Lactobacillus casei) (P00381 whole entry): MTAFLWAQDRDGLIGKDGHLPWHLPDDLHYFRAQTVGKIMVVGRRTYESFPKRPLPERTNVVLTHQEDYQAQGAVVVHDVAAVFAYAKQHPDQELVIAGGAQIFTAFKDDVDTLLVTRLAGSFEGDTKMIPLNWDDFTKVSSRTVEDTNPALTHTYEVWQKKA

| Structure (SMILES) | ID50 [1] | ID50 [2] | ID50 [3] |
| --- | --- | --- | --- |
| CN(Cc1cnc2nc(N)nc(N)c2n1)c1ccc(C(=O)NC(CCCCNC(=O)OCc2ccccc2)C(=O)O)cc1 (centres undefined) | 14 nM | 45 nM | 11 nM |
| CN(Cc1cnc2nc(N)nc(N)c2n1)c1ccc(C(=O)NC(CCCCNC(=O)CI)C(=O)O)cc1 (centres undefined) | 4.5 nM | 31 nM | 9.8 nM |
| CN(Cc1cnc2nc(N)nc(N)c2n1)c1ccc(C(=O)NC(CCCCN)C(=O)O)cc1 (centres undefined) | 23 nM | 122 nM | 11 nM |
